The record followed here is ChEMBL document CHEMBL5131449, “Synthetic Biology-Based Discovery of Diterpenoid Pyrones from the Genome of Eupenicillium shearii” (J Nat Prod, 2022).

In the experiment the target is Amyloid-beta precursor protein (Homo sapiens) (UniProt P05067). As to the kind of experiment: Inhibition of HFIP-pretreated amyloid beta (1 to 42) (unknown origin) aggregation assessed as suppression of amyloid beta aggregation at 50 uM incubated for 24 hrs by Thioflavin T based fluorescence assay. The experiment is classed as cell-based.
Amyloid-beta precursor protein (Homo sapiens), sequence (P05067 whole entry): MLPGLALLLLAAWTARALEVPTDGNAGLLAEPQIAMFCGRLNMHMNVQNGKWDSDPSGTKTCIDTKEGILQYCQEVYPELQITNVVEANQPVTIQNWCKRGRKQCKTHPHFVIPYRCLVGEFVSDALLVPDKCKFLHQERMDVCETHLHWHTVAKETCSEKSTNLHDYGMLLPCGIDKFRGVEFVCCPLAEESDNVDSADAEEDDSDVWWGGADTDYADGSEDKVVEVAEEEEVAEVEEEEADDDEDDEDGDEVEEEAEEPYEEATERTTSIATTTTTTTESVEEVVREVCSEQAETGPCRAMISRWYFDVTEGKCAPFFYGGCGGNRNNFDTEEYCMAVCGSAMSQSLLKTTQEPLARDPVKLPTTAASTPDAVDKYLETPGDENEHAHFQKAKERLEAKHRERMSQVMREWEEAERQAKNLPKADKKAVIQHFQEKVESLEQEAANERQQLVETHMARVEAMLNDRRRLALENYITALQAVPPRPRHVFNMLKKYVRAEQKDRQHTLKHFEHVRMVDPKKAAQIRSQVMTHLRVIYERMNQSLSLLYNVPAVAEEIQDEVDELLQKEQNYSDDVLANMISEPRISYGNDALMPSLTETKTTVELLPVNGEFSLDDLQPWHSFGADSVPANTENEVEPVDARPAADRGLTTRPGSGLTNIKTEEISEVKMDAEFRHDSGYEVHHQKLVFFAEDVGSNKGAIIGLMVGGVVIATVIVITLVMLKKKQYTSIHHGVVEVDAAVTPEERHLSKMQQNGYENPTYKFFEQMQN

Molecules are shown by their SMILES. The source made the active and inactive calls. The rule behind the calls is not given here.

Regarding `Cc1oc(=O)c2c(c1C)O[C@@]1(C)[C@H](O)[C@H](O)[C@H]3[C@@](C)(CC[C@H]4C(C)(C)[C@@H](O)CC[C@@]43CO)[C@@H]1C2`, the inhibition result was “Active”.
For the compound `Cc1oc(=O)c2c(c1C)O[C@@]1(C)[C@H](O)[C@H](O)[C@H]3[C@@](C)(CC[C@H]4C(C)(C)[C@@]5(O)CC[C@@]43CO5)[C@@H]1C2`, the inhibition entry is “Active”.
With `Cc1oc(=O)c2c(c1C)O[C@@]1(C)[C@H](O)[C@H](O)[C@@H]3[C@@]4(C)CCC(=O)C(C)(C)[C@@H]4CC[C@@]3(C)[C@@H]1C2`, the inhibition result was “Active”.
